Measurements published in PubChem BioAssay (NCI).
“And” between values parts separate entries of the source, which are not always exact repeats. Identical values can stand only once.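 Cultured in 96-well plates, cells were exposed to test compound for 48 hours across five concentrations. GI50 is the concentration that inhibits growth by half. TGI: total growth inhibition.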

Key:
Test in all cases: NCI-60 cell line screen, 48 h
ACHN renal = tested on: ACHN renal
EKVX NSCLC = tested on: EKVX NSCLC
SF-539 CNS = tested on: SF-539 CNS
MOLT-4 leukemia = tested on: MOLT-4 leukemia
HCT-116 colon = tested on: HCT-116 colon
SR leukemia = tested on: SR leukemia
M14 melanoma = tested on: M14 melanoma
XF 498 CNS = tested on: XF 498 CNS
LXFL 529 NSCLC = tested on: LXFL 529 NSCLC
SF-268 CNS = tested on: SF-268 CNS
SK-OV-3 ovarian = tested on: SK-OV-3 ovarian
DMS 114 small cell lung = tested on: DMS 114 small cell lung
NCI-H23 lung = tested on: NCI-H23 lung
IGROV1 ovarian = tested on: IGROV1 ovarian
HCT-15 colon = tested on: HCT-15 colon
CAKI-1 renal = tested on: CAKI-1 renal
HCC-2998 colon = tested on: HCC-2998 colon
HT29 colon = tested on: HT29 colon
SF-295 CNS = tested on: SF-295 CNS
NCI-H522 lung = tested on: NCI-H522 lung
HOP-18 NSCLC = tested on: HOP-18 NSCLC
NCI-H460 lung = tested on: NCI-H460 lung
UACC-257 melanoma = tested on: UACC-257 melanoma
SNB-75 CNS = tested on: SNB-75 CNS
UO-31 renal = tested on: UO-31 renal
SK-MEL-2 melanoma = tested on: SK-MEL-2 melanoma
LOX IMVI melanoma = tested on: LOX IMVI melanoma
MALME-3M melanoma = tested on: MALME-3M melanoma
SW-620 colon = tested on: SW-620 colon
786-0 renal = tested on: 786-0 renal
KM20L2 colon = tested on: KM20L2 colon
DLD-1 colon = tested on: DLD-1 colon
OVCAR-4 ovarian = tested on: OVCAR-4 ovarian
SNB-19 CNS = tested on: SNB-19 CNS
KM12 colon = tested on: KM12 colon
OVCAR-3 ovarian = tested on: OVCAR-3 ovarian
UACC-62 melanoma = tested on: UACC-62 melanoma
NCI-H226 lung = tested on: NCI-H226 lung
M19-MEL melanoma = tested on: M19-MEL melanoma
TK-10 renal = tested on: TK-10 renal
OVCAR-8 ovarian = tested on: OVCAR-8 ovarian
SNB-78 CNS = tested on: SNB-78 CNS
SK-MEL-5 melanoma = tested on: SK-MEL-5 melanoma
RPMI-8226 leukemia = tested on: RPMI-8226 leukemia
CCRF-CEM leukemia = tested on: CCRF-CEM leukemia
COLO 205 colon = tested on: COLO 205 colon
HL-60(TB) leukemia = tested on: HL-60(TB) leukemia
HOP-62 NSCLC = tested on: HOP-62 NSCLC
HOP-92 NSCLC = tested on: HOP-92 NSCLC
DMS 273 small cell lung = tested on: DMS 273 small cell lung
RXF 393 renal = tested on: RXF 393 renal
SN12C renal = tested on: SN12C renal
K-562 leukemia = tested on: K-562 leukemia
OVCAR-5 ovarian = tested on: OVCAR-5 ovarian
U251 CNS = tested on: U251 CNS
RXF-631 renal = tested on: RXF-631 renal
SK-MEL-28 melanoma = tested on: SK-MEL-28 melanoma
A498 renal = tested on: A498 renal
A549 NSCLC = tested on: A549 NSCLC

## COC(=O)c1cc2c(c(C(=O)OC)c1O)C(=O)C=CC2=O
ACHN renal
  GI50: > 9.1 µM
  TGI: > 46.3 µM
EKVX NSCLC
  GI50: > 9.1 µM
  TGI: > 41.4 µM
SF-539 CNS
  GI50: > 9.1 µM
  TGI: > 56.1 µM
MOLT-4 leukemia
  TGI: > 21.5 µM
HCT-116 colon
  GI50: 3.49 µM
  TGI: > 9.1 µM and 16.9 µM
SR leukemia
  TGI: > 22 µM
M14 melanoma
  GI50: > 9.1 µM
  TGI: > 66.9 µM
XF 498 CNS
  GI50: 37.8 µM
  TGI: > 100 µM
LXFL 529 NSCLC
  GI50: 4.16 µM
  TGI: 9.1 µM
SF-268 CNS
  GI50: > 9.1 µM
  TGI: > 55.2 µM
SK-OV-3 ovarian
  GI50: > 9.1 µM
  TGI: > 100 µM
DMS 114 small cell lung
  GI50: > 9.1 µM
  TGI: > 78.8 µM
NCI-H23 lung
  GI50: > 9.1 µM
  TGI: > 31.6 µM
IGROV1 ovarian
  GI50: > 9.1 µM
  TGI: > 58.6 µM
HCT-15 colon
  GI50: > 9.1 µM
  TGI: > 49.4 µM
CAKI-1 renal
  GI50: > 100 µM
  TGI: > 100 µM
HCC-2998 colon
  GI50: > 9.1 µM
  TGI: > 57.4 µM
HT29 colon
  GI50: 18.4 µM
  TGI: > 9.1 µM and 38.5 µM
SF-295 CNS
  GI50: > 9.1 µM
  TGI: > 56.3 µM
NCI-H522 lung
  GI50: 3.01 µM
  TGI: 9.1 µM and > 26.9 µM
HOP-18 NSCLC
  GI50: 16.3 µM
  TGI: 9.1 µM and 29.9 µM
NCI-H460 lung
  GI50: > 9.1 µM
  TGI: > 74.3 µM
UACC-257 melanoma
  GI50: > 9.1 µM
  TGI: > 48.7 µM
SNB-75 CNS
  TGI: > 9.1 µM and 31.8 µM
UO-31 renal
  GI50: > 9.1 µM
  TGI: > 56.9 µM
SK-MEL-2 melanoma
  GI50: > 100 µM
  TGI: > 100 µM
LOX IMVI melanoma
  GI50: > 9.1 µM
  TGI: > 56.9 µM
MALME-3M melanoma
  GI50: > 9.1 µM
  TGI: > 58.4 µM
SW-620 colon
  GI50: > 9.1 µM
  TGI: > 21.3 µM
786-0 renal
  GI50: > 9.1 µM
  TGI: > 56.1 µM
KM20L2 colon
  GI50: > 9.1 µM
  TGI: > 56.4 µM
DLD-1 colon
  GI50: > 9.1 µM
  TGI: > 46.1 µM
OVCAR-4 ovarian
  GI50: > 9.1 µM
  TGI: > 54 µM
SNB-19 CNS
  GI50: > 9.1 µM
  TGI: > 60.7 µM
KM12 colon
  GI50: > 9.1 µM
  TGI: > 58.3 µM
OVCAR-3 ovarian
  GI50: > 9.1 µM
  TGI: > 60.9 µM
UACC-62 melanoma
  GI50: 18 µM
  TGI: > 9.1 µM and 33.7 µM
NCI-H226 lung
  GI50: 18.5 µM
  TGI: > 9.1 µM and 34.7 µM
M19-MEL melanoma
  GI50: > 9.1 µM
  TGI: > 58.5 µM
TK-10 renal
  GI50: > 9.1 µM
  TGI: > 54.6 µM
OVCAR-8 ovarian
  GI50: > 9.1 µM
  TGI: > 40.4 µM
SNB-78 CNS
  GI50: > 9.1 µM
  TGI: > 66.8 µM
SK-MEL-5 melanoma
  GI50: > 9.1 µM
  TGI: > 55.1 µM
RPMI-8226 leukemia
  GI50: 1.79 µM
  TGI: > 9.1 µM and 5.6 µM
CCRF-CEM leukemia
  TGI: 4.31 µM
COLO 205 colon
  GI50: > 9.1 µM
  TGI: > 9.1 µM and 98.8 µM
HL-60(TB) leukemia
  TGI: > 24.4 µM
HOP-62 NSCLC
  GI50: > 9.1 µM
  TGI: > 93.4 µM
HOP-92 NSCLC
  TGI: > 21.9 µM
DMS 273 small cell lung
  GI50: > 9.1 µM
  TGI: > 71.6 µM
RXF 393 renal
  GI50: > 9.1 µM
  TGI: > 48.9 µM
SN12C renal
  GI50: > 9.1 µM
  TGI: > 56.3 µM
K-562 leukemia
  TGI: > 22.7 µM
OVCAR-5 ovarian
  TGI: > 54.6 µM
U251 CNS
  GI50: > 9.1 µM
  TGI: > 55.8 µM
RXF-631 renal
  GI50: > 9.1 µM
  TGI: > 71.2 µM
SK-MEL-28 melanoma
  GI50: > 9.1 µM
  TGI: > 58.1 µM
A498 renal
  GI50: > 9.1 µM
  TGI: > 55.8 µM
A549 NSCLC
  GI50: > 9.1 µM
  TGI: > 58.3 µM
